Converted amounts (≈) assume the structure as drawn.
Assays:
Aspergillus niger = assay: Antifungal activity against Aspergillus niger by twofold serial dilution method; format: functional
Aspergillus flavus = assay: Antifungal activity against Aspergillus flavus by twofold serial dilution method; format: functional
Candida albicans = assay: Antifungal activity against Candida albicans by twofold serial dilution method; format: functional
Escherichia coli = assay: Antibacterial activity against Escherichia coli by twofold serial dilution method; format: functional
Staphylococcus aureus = assay: Antibacterial activity against Staphylococcus aureus by twofold serial dilution method; format: functional
Candida = assay: Antifungal activity against Candida 51 by twofold serial dilution method; format: functional
Pseudomonas aeruginosa = assay: Antibacterial activity against Pseudomonas aeruginosa by twofold serial dilution method; format: functional
Klebsiella pneumoniae = assay: Antibacterial activity against Klebsiella pneumoniae by twofold serial dilution method; format: functional
Rhizopus = assay: Antifungal activity against Rhizopus sp. by twofold serial dilution method; format: functional
Salmonella enterica = assay: Antibacterial activity against Salmonella typhi by twofold serial dilution method; format: functional, Salmonella enterica subsp. enterica serovar Typhi

SMILES | MIC (Aspergillus niger) | MIC (Aspergillus flavus) | MIC (Candida albicans) | MIC (Escherichia coli) | MIC (Staphylococcus aureus) | MIC (Candida) | MIC (Pseudomonas aeruginosa) | MIC (Klebsiella pneumoniae) | MIC (Rhizopus) | MIC (Salmonella enterica)
Cc1ccc(C2NC(c3ccc(C)cc3)C3C(=NOCc4ccccc4)C2C(c2ccc(C)cc2)NC3c2ccc(C)cc2)cc1 (stereo unspecified) | 50 µg/mL (≈ 82.5 µM) | 25 µg/mL (≈ 41.3 µM) | 25 µg/mL (≈ 41.3 µM) | 25 µg/mL (≈ 41.3 µM) | 25 µg/mL (≈ 41.3 µM) | 50 µg/mL (≈ 82.5 µM) | 6.25 µg/mL (≈ 10.3 µM) | 100 µg/mL (≈ 165 µM) | 50 µg/mL (≈ 82.5 µM) | –
Fc1cccc(C2NC(c3cccc(F)c3)C3C(=NOCc4ccccc4)C2C(c2cccc(F)c2)NC3c2cccc(F)c2)c1 (stereo unspecified) | 50 µg/mL (≈ 80.4 µM) | 25 µg/mL (≈ 40.2 µM) | 25 µg/mL (≈ 40.2 µM) | 25 µg/mL (≈ 40.2 µM) | 12.5 µg/mL (≈ 20.1 µM) | 50 µg/mL (≈ 80.4 µM) | 12.5 µg/mL (≈ 20.1 µM) | 50 µg/mL (≈ 80.4 µM) | 50 µg/mL (≈ 80.4 µM) | –
Fc1ccc(C2NC(c3ccc(F)cc3)C3C(=NOCc4ccccc4)C2C(c2ccc(F)cc2)NC3c2ccc(F)cc2)cc1 (stereo unspecified) | 25 µg/mL (≈ 40.2 µM) | 50 µg/mL (≈ 80.4 µM) | 12.5 µg/mL (≈ 20.1 µM) | 12.5 µg/mL (≈ 20.1 µM) | 12.5 µg/mL (≈ 20.1 µM) | 25 µg/mL (≈ 40.2 µM) | 6.25 µg/mL (≈ 10.1 µM) | 25 µg/mL (≈ 40.2 µM) | 12.5 µg/mL (≈ 20.1 µM) | –
c1ccc(CON=C2C3C(c4ccccc4)NC(c4ccccc4)C2C(c2ccccc2)NC3c2ccccc2)cc1 (stereo unspecified) | 100 µg/mL (≈ 182 µM) | 200 µg/mL (≈ 364 µM) | 100 µg/mL (≈ 182 µM) | 100 µg/mL (≈ 182 µM) | 200 µg/mL (≈ 364 µM) | > 200 µg/mL | 100 µg/mL (≈ 182 µM) | > 200 µg/mL | 200 µg/mL (≈ 364 µM) | –
CN1C(c2ccc(Cl)cc2)C2CCCC(C2=NOCc2ccccc2)C1c1ccc(Cl)cc1 (stereo unspecified) | 12.5 µg/mL (≈ 26.1 µM) | 100 µg/mL (≈ 209 µM) | 25 µg/mL (≈ 52.1 µM) | 50 µg/mL (≈ 104 µM) | 12.5 µg/mL (≈ 26.1 µM) | 12.5 µg/mL (≈ 26.1 µM) | 12.5 µg/mL (≈ 26.1 µM) | 50 µg/mL (≈ 104 µM) | 12.5 µg/mL (≈ 26.1 µM) | 25 µg/mL (≈ 52.1 µM)
COc1ccc(C2C3CCCC(C3=NOCc3ccccc3)C(c3ccc(OC)cc3)N2C)cc1 (stereo unspecified) | 25 µg/mL (≈ 53.1 µM) | 100 µg/mL (≈ 212 µM) | 25 µg/mL (≈ 53.1 µM) | 25 µg/mL (≈ 53.1 µM) | 50 µg/mL (≈ 106 µM) | 50 µg/mL (≈ 106 µM) | 25 µg/mL (≈ 53.1 µM) | 100 µg/mL (≈ 212 µM) | 50 µg/mL (≈ 106 µM) | 50 µg/mL (≈ 106 µM)
Clc1ccccc1C1NC(c2ccccc2Cl)C2CCCC1C2=NOCc1ccccc1 (stereo unspecified) | 50 µg/mL (≈ 107 µM) | 12.5 µg/mL (≈ 26.9 µM) | 12.5 µg/mL (≈ 26.9 µM) | 12.5 µg/mL (≈ 26.9 µM) | 12.5 µg/mL (≈ 26.9 µM) | 6.25 µg/mL (≈ 13.4 µM) | 6.25 µg/mL (≈ 13.4 µM) | 50 µg/mL (≈ 107 µM) | 50 µg/mL (≈ 107 µM) | 50 µg/mL (≈ 107 µM)
Cc1ccc(C2C3CCCC(C3=NOCc3ccccc3)C(c3ccc(C)cc3)N2C)cc1 (stereo unspecified) | 100 µg/mL (≈ 228 µM) | 25 µg/mL (≈ 57 µM) | 50 µg/mL (≈ 114 µM) | 100 µg/mL (≈ 228 µM) | 25 µg/mL (≈ 57 µM) | 50 µg/mL (≈ 114 µM) | 25 µg/mL (≈ 57 µM) | 100 µg/mL (≈ 228 µM) | 50 µg/mL (≈ 114 µM) | 50 µg/mL (≈ 114 µM)
Cc1ccc(C2NC(c3ccc(C)cc3)C3CCCC2C3=NOCc2ccccc2)cc1 (stereo unspecified) | 100 µg/mL (≈ 236 µM) | 100 µg/mL (≈ 236 µM) | 50 µg/mL (≈ 118 µM) | 100 µg/mL (≈ 236 µM) | 25 µg/mL (≈ 58.9 µM) | 100 µg/mL (≈ 236 µM) | 25 µg/mL (≈ 58.9 µM) | 200 µg/mL (≈ 471 µM) | 25 µg/mL (≈ 58.9 µM) | 100 µg/mL (≈ 236 µM)
c1ccc(CON=C2C3CCCC2C(c2ccccc2)NC3c2ccccc2)cc1 (stereo unspecified) | > 200 µg/mL | 200 µg/mL (≈ 504 µM) | 100 µg/mL (≈ 252 µM) | 100 µg/mL (≈ 252 µM) | > 200 µg/mL | 200 µg/mL (≈ 504 µM) | 200 µg/mL (≈ 504 µM) | > 200 µg/mL | > 200 µg/mL | 200 µg/mL (≈ 504 µM)
Fc1ccc(C2NC(c3ccc(F)cc3)C3CCCC2C3=NOCc2ccccc2)cc1 (stereo unspecified) | 50 µg/mL (≈ 116 µM) | 100 µg/mL (≈ 231 µM) | 25 µg/mL (≈ 57.8 µM) | 25 µg/mL (≈ 57.8 µM) | 100 µg/mL (≈ 231 µM) | 100 µg/mL (≈ 231 µM) | 25 µg/mL (≈ 57.8 µM) | 50 µg/mL (≈ 116 µM) | 50 µg/mL (≈ 116 µM) | 50 µg/mL (≈ 116 µM)
CN1C(c2ccccc2)C2CCCC(C2=NOCc2ccccc2)C1c1ccccc1 (stereo unspecified) | 200 µg/mL (≈ 487 µM) | > 200 µg/mL | 50 µg/mL (≈ 122 µM) | 100 µg/mL (≈ 244 µM) | 200 µg/mL (≈ 487 µM) | 200 µg/mL (≈ 487 µM) | 100 µg/mL (≈ 244 µM) | 200 µg/mL (≈ 487 µM) | 50 µg/mL (≈ 122 µM) | 100 µg/mL (≈ 244 µM)
COc1ccc(C2NC(c3ccc(OC)cc3)C3CCCC2C3=NOCc2ccccc2)cc1 (stereo unspecified) | 100 µg/mL (≈ 219 µM) | 100 µg/mL (≈ 219 µM) | 50 µg/mL (≈ 110 µM) | 50 µg/mL (≈ 110 µM) | 100 µg/mL (≈ 219 µM) | 50 µg/mL (≈ 110 µM) | 50 µg/mL (≈ 110 µM) | 100 µg/mL (≈ 219 µM) | 50 µg/mL (≈ 110 µM) | 50 µg/mL (≈ 110 µM)
CN1C(c2ccc(F)cc2)C2CCCC(C2=NOCc2ccccc2)C1c1ccc(F)cc1 (stereo unspecified) | 25 µg/mL (≈ 56 µM) | 50 µg/mL (≈ 112 µM) | 12.5 µg/mL (≈ 28 µM) | 12.5 µg/mL (≈ 28 µM) | 50 µg/mL (≈ 112 µM) | 25 µg/mL (≈ 56 µM) | 12.5 µg/mL (≈ 28 µM) | 25 µg/mL (≈ 56 µM) | 25 µg/mL (≈ 56 µM) | 25 µg/mL (≈ 56 µM)
COc1ccc(C2NC(c3ccc(OC)cc3)C3C(=NOCc4ccccc4)C2C(c2ccc(OC)cc2)NC3c2ccc(OC)cc2)cc1 (stereo unspecified) | 25 µg/mL (≈ 37.3 µM) | 50 µg/mL (≈ 74.6 µM) | 50 µg/mL (≈ 74.6 µM) | 50 µg/mL (≈ 74.6 µM) | 25 µg/mL (≈ 37.3 µM) | 100 µg/mL (≈ 149 µM) | 12.5 µg/mL (≈ 18.7 µM) | 100 µg/mL (≈ 149 µM) | 50 µg/mL (≈ 74.6 µM) | –
Fc1cccc(C2NC(c3cccc(F)c3)C3CCCC2C3=NOCc2ccccc2)c1 (stereo unspecified) | 100 µg/mL (≈ 231 µM) | 100 µg/mL (≈ 231 µM) | 50 µg/mL (≈ 116 µM) | 25 µg/mL (≈ 57.8 µM) | 100 µg/mL (≈ 231 µM) | 200 µg/mL (≈ 462 µM) | 25 µg/mL (≈ 57.8 µM) | 100 µg/mL (≈ 231 µM) | 50 µg/mL (≈ 116 µM) | 100 µg/mL (≈ 231 µM)
Clc1ccc(C2NC(c3ccc(Cl)cc3)C3CCCC2C3=NOCc2ccccc2)cc1 (stereo unspecified) | 25 µg/mL (≈ 53.7 µM) | 50 µg/mL (≈ 107 µM) | 25 µg/mL (≈ 53.7 µM) | 50 µg/mL (≈ 107 µM) | 25 µg/mL (≈ 53.7 µM) | 50 µg/mL (≈ 107 µM) | 12.5 µg/mL (≈ 26.9 µM) | 100 µg/mL (≈ 215 µM) | 12.5 µg/mL (≈ 26.9 µM) | 25 µg/mL (≈ 53.7 µM)
O=C(O)c1cn(C2CC2)c2cc(N3CCNCC3)c(F)cc2c1=O [CIPROFLOXACIN] | – | – | – | 25 µg/mL (≈ 75.4 µM) | – | – | – | – | – | 50 µg/mL (≈ 151 µM)
C[C@@H]1[C@H](O)[C@@H](C)/C=C/C=C/C=C/C=C/C=C/C=C/C=C/[C@H](O[C@@H]2O[C@H](C)[C@@H](O)[C@H](N)[C@@H]2O)C[C@@H]2O[C@](O)(C[C@@H](O)C[C@@H](O)[C@H](O)CC[C@@H](O)C[C@@H](O)CC(=O)O[C@H]1C)C[C@H](O)[C@H]2C(=O)O [AMPHOTERICIN B] | 50 µg/mL (≈ 54.1 µM) | 50 µg/mL (≈ 54.1 µM) | 25 µg/mL (≈ 27.1 µM) | – | – | 25 µg/mL (≈ 27.1 µM) | – | – | 25 µg/mL (≈ 27.1 µM) | –
Clc1ccc(C2NC(c3ccc(Cl)cc3)C3C(=NOCc4ccccc4)C2C(c2ccc(Cl)cc2)NC3c2ccc(Cl)cc2)cc1 (stereo unspecified) | 25 µg/mL (≈ 36.4 µM) | 12.5 µg/mL (≈ 18.2 µM) | 12.5 µg/mL (≈ 18.2 µM) | 50 µg/mL (≈ 72.7 µM) | 25 µg/mL (≈ 36.4 µM) | 50 µg/mL (≈ 72.7 µM) | 6.25 µg/mL (≈ 9.09 µM) | 50 µg/mL (≈ 72.7 µM) | 25 µg/mL (≈ 36.4 µM) | –
